# Measurements published in patent US5830667A, “Human P450 IID6 cytochrome-derived peptide fragments, anti-peptide fragment antibodies, applications thereof in the diagnosis of autoimmune hepatitis” (Institut National de la Sante et de la Recherche …, priority 1991, dated 1998).
# Ends that are not written are not given here.
# Legend:
# [1] = system: anti-LKM antibodies (LKM-positive sera); test: ELISA test of cytochrome P450 IID6 peptides with human sera; type: binding; details: for number of patients whose sera recognize the peptide: tested by ELISA and immunoblotting, 15 patients
# Protocol: The peptides are redissolved in a PBS buffer, pH 7.4 and diluted in order to obtain concentrations of 0.1, 0.2, 0.5 and 1 μg/ml; 100 μl per well of each peptide solution are incubated overnight in microtitre plates containing 96 wells (IMMULON2a commercially available ELISAPLATE, Dynatech, Poly-Labo, Paris--FRANCE). The ELISA analysis is then performed as described in GUEGUEN M. et al., (Biochem. Biophys. Res. Commun., 1989, 159, 542), using the various human sera described above. The first antibodies are tested at dilutions ranging from 1/100 to 1/12,800. The alkaline phosphatase-conjugated goat anti-human IgG antibody is used as second antibody at a dilution of 1/1000. The test is developed by adding 100 μl of p-nitrophenyl phosphate at a concentration of 1 mg/ml in a 0.05M NaCO3 buffer, pH 9.8 and 0.001M MgCl2. The results read after incubating for 30 minutes at room temperature are considered positive when they are higher by a factor of 2 compared with the control serum.
# [2] = system: anti-LKM autoantibodies; test: Peptide fragments used as diagnostic reagents for autoimmune hepatitis; type: binding, human
# [3] = system: anti-LKM antibodies (LKM-positive sera); test: Immunoblotting of cytochrome P450 IID6 peptides with LKM-positive sera; type: binding, human
# Protocol: (§1) The expression of the fusion proteins from the cDNA constructs is described by STANLEY (Nucleic Acids Research, 1983, 11, 4077). 100 μl culture samples, for each fusion protein, are subjected to electrophoresis on an 8-20% SDS-polyacrylamide gel, transferred onto nitrocellulose and analysed by the immunoblot technique.
# (§2) The first antibodies used for the immunoblot method are:
# (§3) 1) sera from patients responding positively to the anti-LKM antibodies;
# (§4) Depending on the origin of the first antibody, the second antibody is either a peroxydase-goat anti-human IgG conjugate, or a peroxydase-goat anti-mouse IgG conjugate (Biosys), at a dilution of 1/1000.
# The different peptides and especially peptides 254-271 (peptide of formula II) , 264-281 and 410-429 (peptide of formula X), are coupled to BSA via their free NH2 -terminal group, using glutaraldehyde (see especially E. HARLOW and D. LANE, 1988, Antibodies, A laboratory manual, Cold Spring Harbor Laboratory).
# [4] = system: anti-LKM antibodies (LKM-positive sera); test: Immunoblot analysis of the fusion proteins P450 IID6/β-gal with LKM-positive sera; type: binding, human; details: eleven sera tested; FIG. 2
# Protocol: b) Expression and immunoblot analysis of the fusion proteins obtained from the various constructs of pEX-627-LKMHC5 and pEX-627-LKMC1/BamHI.
# as §1, §2, §3, §4
# Rat liver and human liver microsomes and β-galactosidase, expressed by the plasmid pEX-627 not comprising the P450 DNA insert, are included on the same gels as positive controls and negative control respectively.
Molecule,number of patients whose sera recognize the peptide [1] [patients/15],positive response in patients suffering from autoimmune hepatitis [2],other results
"EKPYPEHFLDAQGHFVKPEA [Peptide of formula X, amino acids 410-429 of human cytochrome P450 IID6]",2,positive response in most patients,
"LLTEHRMTWDPAQPPRDL [Peptide of formula II, Leu-Leu-Thr-Glu-His-Arg-Met-Thr-Trp-Asp-Pro-Ala-Gln-Pro-Pro-Arg-Asp-Leu]",,,recognized by LKM-positive sera when tested by ELISA [1]: recognized by all the LKM-positivesera; recognized by LKM-positive sera when tested by immunoblotting [3]: recognized by all the LKM-positivesera
"GMTHMTSRDIGVQGFRI [Peptide of formula IX, Gly-Met-Thr-His-Met-Thr-Ser-Arg-Asp-Ile-Gly-Val-Gln-Gly-Phe-Arg-Ile]",1,,
MILHPDVQRRVQQEIDDVIGQVRRPEMGDQA [Peptide of formula Va],8,positive response in most patients,
"LKMC1/BamHI: fusion protein from EcoRI-BamHI fragment of LKMC1, cDNA clone encoding rat cytochrome P450 db2, in plasmid pEX-627 (protein) MGLLIGDDLWAVVIFTAIFLLLVDLVHRHKFWTAHYPPGPVPLPGLGNLLQVDFENMPYSLYKLRSRYGDVFSLQIAWKPVVVINGLKAVRELLVTYGEDTADRPLLPIYNHLGYGNKSKGVVLAPYGPEWREQRRFSVSTLRDFGVGKKSLEQWVTEEAGHLCDTFAKEAEHPFNPSILLSKAVSNVIASLVYARRFEYEDPFFNRMLKTLKESFGEDTGFMAEVLNAIPILLQIPGLPGKVFPKLNSFIALVDKMLIEHKKSWD",,,recognition of fusion protein by LKM-positive sera on the immunoblots [4]: None of the sera of the patients tested recognizes
